Assay results reported in US9375436B2, “Androgen treatment in females” (priority 2004, dated 2016).

Assays:
Format in all cases: in vivo, human
[1] = test system: women with diminished ovarian reserve; assay: Gender of offspring and embryos conceived on DHEA treatment (Example 6)
Protocol: The treatment protocol for long-term supplementation with DHEA that may improve oocyte and embryo quantity, quality, pregnancy rates and time to conception in women with diminished ovarian reserve, involves 25 mg of micronized, pharmaceutical grade DHEA, TID will usually uniformly raise levels of unconjugated DHEA above about 350 ng/dl, and, therefore, raise baseline testosterone. Estradiol baseline levels may also be raised.
A total of 19 pregnancies were recorded with 16 singleton and 3 twin pregnancies. The medical records of all 19 women were reviewed in order to determine whether they conceived spontaneously, defined as including pregnancies conceived with intrauterine inseminations, or by IVF. If conception had occurred by IVF, it was recorded whether fertilization was spontaneous or by intracytoplasmic sperm injection (ICSI).
As a control group, seven women were selected who had undergone one IVF cycle with preimplantation genetic diagnosis (PGD), while for at least 60 days on DHEA supplementation, but had not conceived. The PGD data, defining each embryo's gender, were recorded. Statistics were performed using a binomial runs test, comparing seen distributions with an expected distribution of 50 percent, with p≦0.05 defining significance.

[2] = test system: women with diminished ovarian reserve; assay: Miscarriage rates in DHEA pregnancies at two centers versus 2004 national US IVF data (Example 8)
Protocol: Based on reported clinical experiences, the indications for DHEA supplementation have changed over the years, with women above age 40 since 2007 receiving routine supplementation, and younger women receiving supplementation only selectively.
DHEA supplementation involves the use of pharmaceutical grade micronized DHEA at a dosage of about 25 mg, three times daily. Patients are on DHEA supplementation for at least about two months prior to oocyte retrieval. This period of minimal pretreatment is based on the recognition that at two months pregnancy curves between DHEA pretreated and control patients statistically diverge. DHEA is maintained until pregnancy is established and is discontinued with positive pregnancy test.
Toronto West Fertility Associates, in Toronto, Canada, started utilizing DHEA independent of the use of DHEA at the Center for Human Reproduction (CHR) in New York, N.Y. In December of 2007, Toronto's medical director forwarded a detailed electronic record of the center's all-inclusive DHEA experience for analysis to CHR. This study, therefore, reports on the miscarriage rate of pregnancies, independently established under DHEA supplementation at both fertility centers, and compares these rates, age-stratified, to miscarriage rates reported in a national IVF data base in the U.S. for the year 2004. The definitions of clinical pregnancy, and of miscarriage, used herein follow the reporting requirements of this national data base, defining a clinical pregnancy as a pregnancy, confirmed by ultrasound examination.
Miscarriage rates of DHEA supplemented patients were compared with national IVF outcome statistics, reported annually under Federal mandate by the Centers for Disease Control. The data utilized for this study reflect 2004 United States national statistics. Pregnancy and miscarriage rates at the two centers were pooled after confirmation of homogeneity of variance. Common odds ratios of the pooled miscarriage rates among age stratified pregnant patients were compared between the pooled rates and the 2004 US national rates utilizing the Mantel-Haenszel common odds ratio. Statistical analyses were performed using SPSS Windows, standard version 15.0.
DHEA supplementation: After approval by the center's institutional review board, the Center for Human Reproduction (CHR) in New York City has been utilizing DHEA supplementation in women with diminished ovarian reserve since 2004. Based on reported clinical experiences, the indications for such supplementation have changed over the years: In initial stages, only older women, above age 42, were supplemented and only if they had failed at least one IVF cycle and less than 4 oocytes had been retrieved in confirmation of ovarian resistance to stimulation. By mid-2005, indications were expanded to all women above age 40 with evidence of ovarian resistance and a history of one failed prior IVF cycle. […] By mid-2006 FSH baseline criteria were changed from absolute FSH elevations to elevations in age-specific FSH levels.
DHEA supplementation in all patients involves oral, pharmaceutical grade micronized medication at a dosage of 25 mg, three times daily (TID). Only morbidly obese women receive an increased daily dosage of 100 mg and no such women were involved in this study. […] Limited patient volume and funding sources have prevented dose response studies and 25 mg DHEA TID daily has, therefore, remained the only standard treatment dosage. Patients receive at least two months of DHEA supplementation prior to oocyte retrieval, unless they conceive spontaneously during that time period. This minimum pretreatment period is based on the recognition that at two months pregnancy curves between DHEA pretreated and control patients statistically diverge. DHEA is maintained until pregnancy, and is discontinued with second positive pregnancy test. […]

[3] = test system: patients with prior clomiphene citrate failures; assay: Toronto insemination cycles after DHEA (reported study); conditions: DHEA pregnancies, insemination cycles with clomiphene citrate/letrozole and FSH
Protocol: In cooperation with Robert F Casper's group at Toronto's Mount Sinai Hospital, they recently reported on 47 patients with prior clomiphene citrate failures who were supplemented with 75 mg daily of DHEA for at least 60 days prior to inseminations, with stimulation by either clomiphene citrate or letrozole in combination with FSH. Controls were 46 women, matched by age and baseline FSH without DHEA supplementation.
The possibility of synergistic gonadotropin and DHEA effects is supported by reanalysis of the Toronto groups' previously noted insemination cycles, stimulated with a clomiphene citrate/letrozole and FSH protocols. […] Final conclusions await, however, further investigations.

[4] = 15 offspring of pregnancies achieved through IVF
[5] = 53 embryos from 17 IVF cycles, women on DHEA, all ICSI
[6] = sixteen singleton pregnancies conceived on DHEA for at least 60 days

## C[C@]12CC[C@H](O)CC1=CC[C@@H]1[C@@H]2CC[C@]2(C)C(=O)CC[C@@H]12 [DHEA, Dehydroepiandrosterone]
[1]; [4]
  female offspring: 3
  male offspring: 12
[1]; [5]
  female embryos by PGD: 26
  male embryos by PGD: 27
[1]; singletons plus twins
  female offspring, final gender distribution: 6
  male offspring, final gender distribution: 15
[1]; [6]
  female offspring: 5
  male offspring: 11
[2]; 33 DHEA pregnancies, five miscarriages
  clinical miscarriage rate, Toronto: 15.2%
[2]; 40 DHEA pregnancies, six miscarriages
  clinical miscarriage rate, New York: 15.0%
[2]; NY, age 35-37
  Misc. Rate (%): 0.0%
[2]; NY, age 35-37, 5 pregnancies
  Miscarriages: 0
[2]; NY, age 38-40
  Misc. Rate (%): 0.0%
[2]; NY, age 38-40, 6 pregnancies
  Miscarriages: 0
[2]; NY, age 41-42
  Misc. Rate (%): 20.0%
[2]; NY, age 41-42, 10 pregnancies
  Miscarriages: 2
[2]; NY, age <35
  Misc. Rate (%): 10.0%
[2]; NY, age <35, 10 pregnancies
  Miscarriages: 1
[2]; NY, age >42
  Misc. Rate (%): 33.3%
[2]; NY, age >42, 9 pregnancies
  Miscarriages: 3
[2]; TO, age 35-37
  Misc. Rate (%): 10.0%
[2]; TO, age 35-37, 10 pregnancies
  Miscarriages: 1
[2]; TO, age 38-40
  Misc. Rate (%): 23.1%
[2]; TO, age 38-40, 13 pregnancies
  Miscarriages: 3
[2]; TO, age 41-42, 0 pregnancies
  Miscarriages: 0
[2]; TO, age <35
  Misc. Rate (%): 14.3%
[2]; TO, age <35, 7 pregnancies
  Miscarriages: 1
[2]; TO, age >42
  Misc. Rate (%): 0.0%
[2]; TO, age >42, 3 pregnancies
  Miscarriages: 0
[2]; TOTAL both centers, age 35-37
  Misc. Rate (%): 6.7%
[2]; TOTAL both centers, age 38-40
  Misc. Rate (%): 15.8%
[2]; TOTAL both centers, age 41-42
  Misc. Rate (%): 20.0%
[2]; TOTAL both centers, age <35
  Misc. Rate (%): 11.8%
[2]; TOTAL both centers, age >42
  Misc. Rate (%): 25.0%
[2]; first statistical model (age-stratified odds ratio)
  reduction in miscarriage risk: approximately 50%
[2]; versus national US IVF pregnancies
  decline in miscarriages, depending on statistical method: 50-80%
[3]
  miscarriage rate (calculated on reanalysis): 28.5%
